From patent US20230406883A1, “COMPOUNDS AND THEIR USE IN TREATMENT OF TACHYKININ RECEPTOR MEDIATED DISORDERS” (Embark Biotech ApS, priority 2020, published 2023)
Several values for one entry are separate records, joined by “and”; a condition that tells them apart may be missing. Identical values can stand only once. Like-named read-outs stand apart in the source and are kept apart here. Numbered stars: 1 amine (or outer) side, 2 acyl side, 3 side chain; on linkers, the order of the positions; unused ones are H or OH. Square brackets hold non-standard residues; d marks the D form. Peptide text beside a SMILES is read from it. * marks the point of attachment. C18 diacid = O=C(O)CCCCCCCCCCCCCCCCC(=O)*; Phe(4-F) = N[C@@H](Cc1ccc(F)cc1)C(=O)O; γGlu = O=C(O)[C@H](CCC(=O)[*:2])N[*:1]; NMeL = CN[C@@H](CC(C)C)C(=O)O; hSer = N[C@@H](CCO)C(=O)O; Nle = CCCC[C@H](N)C(=O)O; AEEA = NCCOCCOCC(=O)O

Key:
hNK1R = biological target: T1, hNK1R (Homo sapiens, UniProt P25103); assay: IP3 assay (inositol trisphosphate, 3H-myoinositol) in transiently transfected COS-7 cells; type: cell-based; settings: for EC50: 0.2% ovalbumin buffer
T1 construct: host or cells: COS-7
T1 sequence (P25103 whole entry): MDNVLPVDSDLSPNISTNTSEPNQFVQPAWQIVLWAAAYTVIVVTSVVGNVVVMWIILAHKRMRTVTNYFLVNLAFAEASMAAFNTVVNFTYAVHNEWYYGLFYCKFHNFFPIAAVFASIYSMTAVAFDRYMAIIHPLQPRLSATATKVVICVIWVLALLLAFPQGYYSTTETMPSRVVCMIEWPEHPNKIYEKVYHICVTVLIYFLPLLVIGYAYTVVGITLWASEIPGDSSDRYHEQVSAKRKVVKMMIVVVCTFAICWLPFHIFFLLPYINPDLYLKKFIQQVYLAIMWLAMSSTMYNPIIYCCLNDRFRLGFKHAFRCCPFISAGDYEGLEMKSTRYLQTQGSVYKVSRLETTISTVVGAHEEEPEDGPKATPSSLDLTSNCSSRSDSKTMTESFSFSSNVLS
Summary of the method: (§1)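 COS-7 cells were transiently transfected with receptor plasmid and labelled with ³H-myo-inositol. Cells were lysed in formic acid, and ³H-inositol phosphates were captured on SPA YSI beads and counted.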

hNK2R [1] = biological target: T2, hNK2R (Homo sapiens, UniProt P21452); assay: as above; type: cell-based; settings: COS-7 cells; for EC50: 0.2% ovalbumin buffer; for hNK2R, IP3 Efficacy: figure legends: percent of 10^-6 M NKA
T2 construct: host or cells: COS-7
T2 sequence (P21452 1-398): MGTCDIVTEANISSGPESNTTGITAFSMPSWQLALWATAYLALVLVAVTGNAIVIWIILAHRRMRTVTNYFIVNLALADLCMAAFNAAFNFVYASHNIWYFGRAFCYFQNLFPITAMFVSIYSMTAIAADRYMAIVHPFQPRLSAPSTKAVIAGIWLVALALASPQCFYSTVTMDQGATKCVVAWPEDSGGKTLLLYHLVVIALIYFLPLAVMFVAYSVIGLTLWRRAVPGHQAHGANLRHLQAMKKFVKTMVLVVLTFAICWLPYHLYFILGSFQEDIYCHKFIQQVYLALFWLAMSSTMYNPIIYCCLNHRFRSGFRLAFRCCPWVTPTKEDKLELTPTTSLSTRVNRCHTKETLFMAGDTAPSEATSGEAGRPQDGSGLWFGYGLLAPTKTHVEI
Summary of the method: as §1

hNK3R = biological target: T3, hNK3R (Homo sapiens, UniProt P29371); assay: as above; type: cell-based; settings: for EC50: 0.2% ovalbumin buffer, read-out: hNK3, IP3 EC50
T3 construct: host or cells: COS-7
T3 sequence (P29371 1-465): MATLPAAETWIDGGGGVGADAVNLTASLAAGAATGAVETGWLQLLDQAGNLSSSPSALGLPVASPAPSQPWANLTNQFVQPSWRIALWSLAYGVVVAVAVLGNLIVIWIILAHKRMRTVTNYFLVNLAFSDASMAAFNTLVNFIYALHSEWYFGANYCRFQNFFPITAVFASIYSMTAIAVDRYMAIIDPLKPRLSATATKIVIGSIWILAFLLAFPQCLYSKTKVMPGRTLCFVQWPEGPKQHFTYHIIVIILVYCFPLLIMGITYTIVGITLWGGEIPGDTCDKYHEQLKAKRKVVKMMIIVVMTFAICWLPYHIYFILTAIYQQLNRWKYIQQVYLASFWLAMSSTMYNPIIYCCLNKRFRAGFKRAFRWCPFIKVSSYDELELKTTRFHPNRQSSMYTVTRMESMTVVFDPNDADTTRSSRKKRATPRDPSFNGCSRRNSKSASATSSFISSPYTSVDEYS
Summary of the method: as §1

hNK2R [2] = biological target: T2, hNK2R; assay: Hithunter cAMP assay (Gs-coupling) in transfected COS-7 cells; type: cell-based; settings: for EC50 / hNK2R, cAMP Efficacy: COS-7 cells
Description: (§2) As a secondary measure of agonist-induced G-protein coupled receptor (GPCR) activation cyclin adenosine monophosphate (cAMP) was measured by the Hithunter cAMP-assay from DiscoverX. Assays were carried out using COS-7 cells transiently transfected by calcium phosphate transfection with a vector pcDNA3.1(+) encoding one of the indicated receptors (Genscript). Briefly, DNA mixed with CaCl2 (2 M) and TE-buffer (10 mM Tris-HCl, 1 mM EDTA, pH 7.5) was dropwise added to 2×HBS (50 mM HEPES, 280 mM NaCl, 1.5 mM NaH2PO4, pH 7.2) and incubated for 45 min at room temperature (22±2° C.). The mixture and a final concentration of 100 μM Chloroquine were added to the cells and left to incubate for 5 hours at 37° C. under standard cell culture conditions (10% CO2) before changing medium to fresh maintenance medium.
The cAMP-assay takes advantage of the tachykinin receptors' ability to induce production of the cAMP second messenger upon agonist (ligand) binding on receptor expressing cells. Production of cAMP stems from receptor coupling to Gs-protein although coupling to Gq-protein (IP3-production) is considered the primary signalling mechanism by tachykinin receptors.
The assay was performed the day after transfection. Briefly, maintenance medium was aspirated, and plates were washed ×1 in HBSS before adding assay buffer (HBSS+1 mM IBMX), pre-incubated for 30 min at 37° C. followed by 15 min incubation with agonist (ligand) at 37° C. After incubation, plates were subjected to cell lysis and anti-cAMP-antibody incubation as described by manufacturer. Luminescence was measured with EnVision Multimode Plate Reader from Perkin Elmer.

hNK2R [3] = biological target: T2, hNK2R; assay: 3H-NKA competitive binding on transfected COS-7 cells; settings: competition with 3H-NKA, 4 h at 4 C
Description: as §2, with “Assays” for “As a secondary measure of agonist-induced G-protein coupled receptor (GPCR) activation cyclin adenosine monophosphate (cAMP) was measured by the Hithunter cAMP-assay from DiscoverX. Assays”
The ^3H-NKA binding assay measures peptide-receptor binding by a competitive principle of receptor binding between radioactively labelled (3H) NKA (tracer) and synthesized peptide ligands on live cells expressing the receptor of interest. Assay solutions used: TKR buffer (50 mM Tris/HCl pH 7.5, 5 mM MnCl2, and 150 mM NaCl), wash buffer (TKR buffer+0.2% w/v OvAlb), binding buffer (wash buffer+0.1 mg/ml Bacitracin), and tracer solution (binding buffer+˜15000 cpm/well ^3H-tracer). The assay was performed on ice the day after transfection.
Briefly, maintenance medium was aspirated, and plates were washed ×1 in cold wash buffer before adding 100 μl cold binding buffer and placing at 4° C. to let plates cool. The cold plates were added indicated peptides (ligand) immediately followed by addition of cold tracer solution (˜15000 cpm/well). Plates were immediately moved to 4° C. and incubated for 4 hours. After incubation, binding was stopped by wash ×2 with cold wash buffer before adding 225 μl Ultima Gold XR. Plates were shaken at medium speed for approximately 30 min and left overnight at room temperature before counting the plates in a MicroBeta plate counter (Perkin Elmer).

[4] = COS-7 cells, figure legends: percent of 10^-6 M NKA

Row | EC50 (hNK1R; COS-7 cells) | hNK1R, IP3 Efficacy (hNK1R; [4]) | EC50 (hNK2R [1]) [µM] | hNK2R, IP3 Efficacy (hNK2R [1]) | EC50 (hNK3R; COS-7 cells) [µM] | hNK3, IP3 Efficacy (hNK3R; [4]) | EC50 (hNK2R [2]) [µM] | hNK2R, cAMP Efficacy (hNK2R [2]) [%] | EC50 (hNK2R [3]) [µM] | Gs activation (cAMP), in words (hNK2R [2]) | Compound | hNK1R, IP3 Efficacy (hNK1R) [%] | hNK3, IP3 Efficacy (hNK3R) [%]
1 | 0.02 µM | 100% | 0.012 | 120% | ~0.16 | 50% | 0.02 | 100 | 0.041 | – | CSCC[C@H](NC(=O)[C@H](CC(C)C)N(C)C(=O)CNC(=O)[C@@H](NC(=O)[C@H](Cc1ccc(O)cc1)NC(=O)[C@H](CCCCN)NC(=O)[C@H](CC(=O)O)NC(=O)COCCOCCNC(=O)COCCOCCNC(=O)CC[C@H](NC(=O)CCCCCCCCCCCCCCCCC(=O)O)C(=O)O)C(C)C)C(N)=O [compound 316, *Asp;Lys;Tyr;Val;Gly;NmLeu;Met;NH2] ({C18 diacid-γGlu-AEEA-AEEA}-DKYVG[NMeL]M-NH2) | – | –
2 | ~26 µM and ~27 µM | 30% and 25% | 0.004 | 80% and 75% | ~3.8 | 10% and 0% | – | 0 | 0.08 | does not activate Gs | CCCC[C@H](NC(=O)[C@H](CC(C)C)N(C)C(=O)CNC(=O)[C@@H](NC(=O)[C@H](Cc1ccc(O)cc1)NC(=O)[C@H](CCCCN)NC(=O)[C@H](CCC(=O)O)NC(=O)COCCOCCNC(=O)COCCOCCNC(=O)CC[C@H](NC(=O)CCCCCCCCCCCCCCCCC(=O)O)C(=O)O)C(C)C)C(N)=O [compound 336, *Glu;Lys;Tyr;Val;Gly;NmLeu;Nle;NH2] ({C18 diacid-γGlu-AEEA-AEEA}-EKYVG[NMeL][Nle]-NH2) | – | –
3 | – | 20% | 0.0025 | 90% | – | 0% | ~0.0013 | 50 | 0.027 | – | CC(C)C[C@@H](C(=O)N[C@@H](Cc1ccccc1)C(N)=O)N(C)C(=O)CNC(=O)[C@@H](NC(=O)[C@H](Cc1ccc(O)cc1)NC(=O)[C@H](CCCCN)NC(=O)[C@H](CC(=O)O)NC(=O)COCCOCCNC(=O)COCCOCCNC(=O)CC[C@H](NC(=O)CCCCCCCCCCCCCCCCC(=O)O)C(=O)O)C(C)C [compound 353, *Asp;Lys;Tyr;Val;Gly;NmLeu;Phe;NH2] ({C18 diacid-γGlu-AEEA-AEEA}-DKYVG[NMeL]F-NH2) | – | –
4 | ~0.25 µM | 40% | 0.0017 | 90% | ~0.19 | 25% | 0.054 | 80 | 0.076 | – | CC(C)C[C@@H](C(=O)N[C@@H](Cc1ccc(F)cc1)C(N)=O)N(C)C(=O)CNC(=O)[C@@H](NC(=O)[C@H](Cc1ccc(O)cc1)NC(=O)[C@H](CCCCN)NC(=O)[C@H](CC(=O)O)NC(=O)COCCOCCNC(=O)COCCOCCNC(=O)CC[C@H](NC(=O)CCCCCCCCCCCCCCCCC(=O)O)C(=O)O)C(C)C [compound 369, *Asp;Lys;Tyr;Val;Gly;NmLeu;4-F-Phe;NH2] ({C18 diacid-γGlu-AEEA-AEEA}-DKYVG[NMeL][Phe(4-F)]-NH2) | – | –
5 | 0.205 µM and 0.2 µM | 52% and 30% | 0.0054 | 72% and 70% | – | 0% | – | – | 0.025 | – | CCCC[C@H](NC(=O)[C@H](CC(C)C)NC(=O)CNC(=O)[C@@H](NC(=O)[C@H](Cc1ccc(O)cc1)NC(=O)[C@H](CCCCN)NC(=O)[C@H](CC(=O)O)NC(=O)COCCOCCNC(=O)COCCOCCNC(=O)CC[C@H](NC(=O)CCCCCCCCCCCCCCCCC(=O)O)C(=O)O)C(C)C)C(N)=O [compound 392, *Asp;Lys;Tyr;Val;Gly;Leu;Nle;NH2] ({C18 diacid-γGlu-AEEA-AEEA}-DKYVGL[Nle]-NH2) | – | –

Row | Compound | EC50 (hNK1R; COS-7 cells) | hNK1R, IP3 Efficacy (hNK1R; [4]) | EC50 (hNK2R [1]) [µM] | hNK2R, IP3 Efficacy (hNK2R [1]) | EC50 (hNK3R; COS-7 cells) [µM] | hNK3, IP3 Efficacy (hNK3R; [4]) | EC50 (hNK2R [2]) [µM] | hNK2R, cAMP Efficacy (hNK2R [2]) [%] | EC50 (hNK2R [3]) [µM] | Gs activation (cAMP), in words (hNK2R [2]) | hNK1R, IP3 Efficacy (hNK1R) [%] | hNK3, IP3 Efficacy (hNK3R) [%]
6 | COCC[C@H](NC(=O)[C@H](CC(C)C)N(C)C(=O)CNC(=O)[C@@H](NC(=O)[C@H](Cc1ccc(O)cc1)NC(=O)[C@H](CCCCN)NC(=O)[C@H](CC(=O)O)NC(=O)COCCOCCNC(=O)COCCOCCNC(=O)CC[C@H](NC(=O)CCCCCCCCCCCCCCCCC(=O)O)C(=O)O)[C@@H](C)O)C(N)=O [compound 366, *Asp;Lys;Tyr;Thr;Gly;NmLeu;Metox;NH2] ({C18 diacid-γGlu-AEEA-AEEA}-DKYTG[NMeL][hSer](Me)-NH2) | – | 0% | 0.012 | 100% | – | 0% | ~0.12 | 80 | ~0.104 | – | – | –
7 | COCC[C@H](NC(=O)[C@H](CC(C)C)NC(=O)CNC(=O)[C@@H](NC(=O)[C@H](Cc1ccc(O)cc1)NC(=O)[C@H](CCCCN)NC(=O)[C@H](CC(=O)O)NC(=O)COCCOCCNC(=O)COCCOCCNC(=O)CC[C@H](NC(=O)CCCCCCCCCCCCCCCCC(=O)O)C(=O)O)C(C)C)C(N)=O [compound 393, *Asp;Lys;Tyr;Val;Gly;Leu;Metox;NH2] ({C18 diacid-γGlu-AEEA-AEEA}-DKYVGL[hSer](Me)-NH2) | 0.342 µM and 3.4 µM | 52% | 0.01 | 100% | – | 36% | – | – | 0.04 | – | 50 | 30
8 | COCC[C@H](NC(=O)[C@H](CC(C)C)NC(=O)[C@@H](CO)NC(=O)[C@@H](NC(=O)[C@H](Cc1ccc(O)cc1)NC(=O)[C@H](CCCCN)NC(=O)[C@H](CC(=O)O)NC(=O)COCCOCCNC(=O)COCCOCCNC(=O)CC[C@H](NC(=O)CCCCCCCCCCCCCCCCC(=O)O)C(=O)O)C(C)C)C(N)=O [compound 396, *Asp;Lys;Tyr;Val;dSer;Leu;Metox;NH2] ({C18 diacid-γGlu-AEEA-AEEA}-DKYV[dS]L[hSer](Me)-NH2) | – | 0% | 0.02 | 92% | – | 0% | – | – | 0.316 | – | – | –
